Experimental data from PMC8157578 (Antioxidants, 2021).
Entries after “also recorded” stand apart in the source; their conditions may differ.

Key:
HeLa cells [1] = assay: Immunofluorescence analysis of intracellular γ-H2AX generation in iron-overloaded HeLa cells (with H2O2); type: cell-based, human; settings: for Inhibition of cellular DNA damage induced by iron overload (with H2O2), in words / Concentration that significantly inhibits cellular DNA damage induced by iron overload (with H2O2): γ-H2AX, HeLa; for Concentration that significantly inhibits cellular DNA damage induced by iron overload (with H2O2): pre-treatment; for Fluorescence intensity of γ-H2AX: Fe(II)-H2O2 alone 2.86±0.64
Description: The immortalized human cervical carcinoma HeLa cell line used in this study was obtained from the Cell Resource Center, Peking Union Medical College. The cell line was checked to be free of mycoplasma contamination by PCR and culture. Its species origin was confirmed with PCR. The identity of the cell line was authenticated with STR profiling (FBI, CODIS). HeLa cells were cultured in a DMEM medium (4 mM L-glutamine, 4500 mg/L glucose, and no sodium pyruvate) with 10% fetal bovine serum (FBS) and 1% penicillin–streptomycin at 37 °C under a 5% CO2 atmosphere.
HeLa cells (10^4/well) were loaded by incubation with 20 μM Fe(II) for 2 h at 37 °C. […] For a detailed experimental procedure, please refer to the Supplementary Materials and our previous report. The experiment was repeated three times. The observation of the fluorescence of γ-H2AX in HeLa cells was conducted with a confocal laser scanning microscope (CLSM) (Leica TCS SP). Thirty cells in each group were randomly selected in different microscopic fields for quantitative detection. In detail, each well was equally divided into nine fields and numbered sequentially from the top right corner. Four fields were randomly selected according to a random number table. Thirty cells were then randomly selected from these four fields. All images were analyzed blind regarding exposure parameters, which were coded by one person and read by another who was blinded to the code. The fluorescence intensity of the γ-H2AX signal on selected images was automatically analyzed using the Image-J software. The Statistical Product and Service Solutions (SPSS 21) program was employed to analyze the data through ANOVA. Significant difference from iron-overloaded group are marked with * p < 0.05, ** p < 0.01, and *** p < 0.001.
(§1) 2.1 Immunofluorescence analysis of intracellular γ-H2AX generation in Hela cells
(§2) Fixed cells were permeabilized with 0.25% Triton-X100 in PBS for 10 min and blocked in 10%
(§3) normal goat serum, 0.1% tween 20 in PBS for 1 hour. The cells were incubated with primary
(§4) monoclonal antibody, γ-H2AX (Ser139, 20E3, Rabbit, mAb #9718) (1:600) overnight at 4°C, and then
(§5) stained secondary antibodies, anti-rabbit Alexa-488 and anti-mouse (Cell Signaling Technology) for
(§6) 1 hour. After Hoechst 33342 (10 μg/mL) staining for 2 min, dishes were mounted in ProLong™ Gold
(§7) Antifade Mountant (Invitrogen™) and stored at 4°C in the dark before confocal laser-scanning by
(§8) Broadband Confocal Leica TCS SP5. The CLSM images were obtained with the following excitation
respectively. Cells were washed 3 times with PBS (200 μL/well) at intervals. […]

HeLa cells [2] = assay: Labile iron pool (LIP) determination with calcein-AM in iron-overloaded HeLa cells, flow cytometry; type: cell-based, human; settings: for Fluorescence intensity of calcein-AM (LIP level): 15 min, Fe(II) alone 0.63-0.64
Description: HeLa cells (10^6/mL) were loaded by incubation with 20 μM Fe(II) for 2 h at 37 °C. Subsequently, cells were collected by centrifugation (1000 rpm for 5 min) and incubated with 0.5 μM calcein-AM for 15 min at 37 °C in a D’hanks buffer of pH 7.4. Cells were then washed twice by D’hanks buffer (pH 7.4) and incubated with or without CAPE and its analogues. The fluorescence was monitored by both flow cytometry (BD FACS Caliber) and a CLSM (Leica TCS SP). The experiment was repeated three times.
Figure 3 Effect of CAPE and its analogues on the LIP level in iron-overloaded cells, as measured by flow cytometry (A–D). HeLa cells were pretreated with 20 μM Fe(II) for 2 h and then incubated with calcein-AM. After 15 min, cells were washed and incubated with or without CAPE and its analogues for 15 min. The fluorescence intensity of cells was measured by flow cytometry. Significant differences from the iron-overloaded group are marked with * p < 0.05, ** p < 0.01, and *** p < 0.001. The experiment was repeated three times.

plasmid pBR322 DNA = assay: Plasmid DNA strand breakage induced by Fe(III)–citrate/ascorbate/H2O2, agarose gel electrophoresis; type: biochemical; settings: for Protective effect against iron-mediated DNA damage through inhibiting •OH generation, in words: isolated DNA, Fe(III) and Fe(II) systems, Figures S9–S12
Description: Plasmid DNA agarose gel electrophoresis was employed to investigate protective effect of CAPE and its analogues against DNA strand breakage induced by an iron-mediated system. For experimental procedure details, please refer to the Supplementary Materials.
Figure 4 Protective effect of CAPE and its analogues against Fe(III)–citrate–ascorbate–H2O2-induced DNA damage. […] The reaction mixture contained 20 μM Fe(III)–citrate, 10 μM ascorbate, and 200 μM H2O2, as well as the indicated concentrations of CAPE and its analogues. The experiments were repeated three times, and only typical images are presented. […]
(§9) The experiments were conducted via incubation of plasmid pBR322 DNA (5 μg/mL) at 37 °C for
(§10) 30 min in Chelex-treated HEPES buffer (100 mM, pH 7.4) with the iron-containing systems, in the
absence or presence of the indicated concentrations of CAPE and its analogues. […]

[3] = Cyclic voltammetry of Fe(III) chelated by ligand; type: physicochemical; settings: 100 mM PB pH 7.4, SCE reference, 2 mV/s; Fe(III) alone approximately −0.65 V
Description: CV was performed in 100 mM PB (pH 7.4) on a Princeton Applied Research (VersaSTAT3) potentiostat with a Pt wire as the counter electrode, a saturated calomel electrode (SCE) as the reference electrode, and a glassy carbon electrode (5 mm in diameter) as the working electrode. The scan rate was 2 mV/s.

[4] = 1-octanol/phosphate buffer partitioning, shake-flask method; type: physicochemical; settings: 1-octanol / 100 mM phosphate buffer pH 7.4, shake-flask
[5] = Calcein fluorescence quenching by Fe(III)–citrate, competition by ligand; type: binding; settings: 0.1 μM calcein, 100 μM Fe(III)–citrate, 100–500 μM compound
Description: In the presence of calcein, mixtures of CAPE and Fe(III)/Fe(II) with different concentrations in 20 mM HEPES (pH 7.4) were used for fluorescence detection (Ex: 488 nm; Em: 515 nm). Fluorescence spectra were recorded using a Cary Eclipse fluorescence spectrophotometer (Varian, Palo Alto, CA, USA).
Figure 7 Effect of CAPE and its analogues on the fluorescence intensity of calcein–Fe(III)–citrate. (A,B) the fluorescence quenching of calcein by Fe(III)–citrate diminished in a (CAPE/CA:Fe(III)) ratio-dependent manner. […] The reaction mixture contained 0.1 μM calcein, 100 μM Fe(III)–citrate, and indicated concentrations of CAPE or its analogues (100–500 μM). The experiments were repeated three times, and only typical spectra are presented.

HeLa cells [6] = assay: Labile iron pool (LIP) determination with calcein-AM in iron-overloaded HeLa cells, flow cytometry; type: cell-based, human; settings: 500 μM compound alone, no iron
[7] = ESR spin-trapping (DMPO) of •OH generated by Fe(III)–citrate–ascorbate–H2O2; type: biochemical; settings: 100 μM Fe(III)–citrate, 100 μM ascorbate, 1 mM H2O2
Description: The basic system used in this study consisted of Fe(III)/Fe(II), ascorbate, H2O2, and the spin trapping agent DMPO (100 mM) in 20 mM HEPES (pH 7.4) with or without CAPE and its analogues.
The reaction mixture contained 100 μM Fe(III)–citrate, 100 μM ascorbate, and 1 mM H2O2, as well as the indicated concentrations of CAPE and its analogues. The experiments were repeated three times, and only typical spectra are presented.
spectrometer parameters were as follows: scan range, 100 G; field set, 3470 G; time constant, 200 ms;
scan time, 100 s; modulation amplitude, 1.0 G; modulation frequency, 100 kHz; receiver gain,

[8] = Dissolved oxygen consumption by ascorbic acid/Fe(III)–citrate; type: biochemical; settings: 100 μM Fe(III)-citrate, 1 mM ascorbate, ratio 5:1
Description: as §1, §2, §3, §4, §5, §6, §7, §8
respectively. Cells were washed 3 times with PBS (200 μL/well) at intervals.
as §9, §10
absence or presence of the indicated concentrations of CAPE and its analogues.
2.3 Electron spin resonance (ESR) spin-trapping studies
ESR spectra were recorded at room temperature in a Bruker ESR 300 spectrometer. Typical […]
The consumption of O2 was measured by Orion 3 dissolved oxygen meter (Thermo Scientific, […]
Corona Needle current was 3000 nA. The size of data points was recorded in 4 M format. […]

[9] = 20 μM Fe(III)–citrate, 10 μM ascorbate, 200 μM H2O2

| SMILES | Reduction potential of Fe(III) chelated by compound [3] | LogKow [4] | Inhibition of cellular DNA damage induced by iron overload (with H2O2), in words (HeLa cells [1]) | Concentration that significantly inhibits cellular DNA damage induced by iron overload (with H2O2) (HeLa cells [1]) | Concentration that significantly regenerates calcein fluorescence (decreases LIP level) (HeLa cells [2]; iron-overloaded HeLa cells) | Protective effect against iron-mediated DNA damage through inhibiting •OH generation, in words (plasmid pBR322 DNA) | Fluorescence intensity of γ-H2AX (HeLa cells [1]; Fe(II)-H2O2 + 50 μM compound) | Fluorescence intensity of γ-H2AX (HeLa cells [1]; Fe(II)-H2O2 + 100 μM compound) | Fluorescence intensity of γ-H2AX (HeLa cells [1]; Fe(II)-H2O2 + 200 μM compound) | Fluorescence intensity of γ-H2AX (HeLa cells [1]; Fe(II)-H2O2 + 500 μM compound) | Fluorescence intensity of calcein-AM (LIP level) (HeLa cells [2]; 20 μM Fe(II) + 50 μM compound) | Fluorescence intensity of calcein-AM (LIP level) (HeLa cells [2]; 20 μM Fe(II) + 200 μM compound) | Fluorescence intensity of calcein-AM (LIP level) (HeLa cells [2]; 20 μM Fe(II) + 500 μM compound) | Protective effect against Fe(III)–citrate–ascorbate–H2O2-induced DNA damage, in words (plasmid pBR322 DNA; [9]) | Concentration range with the stated inhibition of Fe(III)-citrate-Vc-H2O2 induced DNA damage (plasmid pBR322 DNA; 20 μM Fe(III)–citrate, 10 μM ascorbate, 200 μM H2O2, CAPE significantly, CA slightly) | Inhibition of calcein fluorescence quenching by Fe(III)–citrate, in words [5] | Fluorescence intensity of calcein-AM (LIP level) (HeLa cells [6]) | Effect on calcein fluorescence (LIP level), in words (HeLa cells [2]; iron-overloaded HeLa cells, 50–500 μM) | Inhibitory effect against Fe(III)-citrate-Vc-H2O2 induced •OH generation, in words [7] | Effect on O2 consumption induced by ascorbic acid/Fe(III)–citrate, in words [8] |
| --- | --- | --- | --- | --- | --- | --- | --- | --- | --- | --- | --- | --- | --- | --- | --- | --- | --- | --- | --- | --- |
| c1cnc2c(c1)ccc1cccnc12 [OP, 1,10-phenanthroline, reference compound] | – | – | effective | – | – | – | – | – | – | – | – | – | – | – | – | – | – | – | – | – |
| COC(=O)/C=C/c1ccc(O)c(O)c1 [CAME, caffeic acid methyl ester] | −0.79 V | 1.27 ± 0.06 | – | 100 to 500 µM | 200 to 500 µM | weaker than CAPE | – | – | – | – | – | – | – | – | – | – | – | – | – | – |

The next lines start with results.

| Reduction potential of Fe(III) chelated by compound [3] | LogKow [4] | SMILES | Inhibition of cellular DNA damage induced by iron overload (with H2O2), in words (HeLa cells [1]) | Concentration that significantly inhibits cellular DNA damage induced by iron overload (with H2O2) (HeLa cells [1]) | Concentration that significantly regenerates calcein fluorescence (decreases LIP level) (HeLa cells [2]; iron-overloaded HeLa cells) | Protective effect against iron-mediated DNA damage through inhibiting •OH generation, in words (plasmid pBR322 DNA) | Fluorescence intensity of γ-H2AX (HeLa cells [1]; Fe(II)-H2O2 + 50 μM compound) | Fluorescence intensity of γ-H2AX (HeLa cells [1]; Fe(II)-H2O2 + 100 μM compound) | Fluorescence intensity of γ-H2AX (HeLa cells [1]; Fe(II)-H2O2 + 200 μM compound) | Fluorescence intensity of γ-H2AX (HeLa cells [1]; Fe(II)-H2O2 + 500 μM compound) | Fluorescence intensity of calcein-AM (LIP level) (HeLa cells [2]; 20 μM Fe(II) + 50 μM compound) | Fluorescence intensity of calcein-AM (LIP level) (HeLa cells [2]; 20 μM Fe(II) + 200 μM compound) | Fluorescence intensity of calcein-AM (LIP level) (HeLa cells [2]; 20 μM Fe(II) + 500 μM compound) | Protective effect against Fe(III)–citrate–ascorbate–H2O2-induced DNA damage, in words (plasmid pBR322 DNA; [9]) | Concentration range with the stated inhibition of Fe(III)-citrate-Vc-H2O2 induced DNA damage (plasmid pBR322 DNA; 20 μM Fe(III)–citrate, 10 μM ascorbate, 200 μM H2O2, CAPE significantly, CA slightly) | Inhibition of calcein fluorescence quenching by Fe(III)–citrate, in words [5] | Fluorescence intensity of calcein-AM (LIP level) (HeLa cells [6]) | Effect on calcein fluorescence (LIP level), in words (HeLa cells [2]; iron-overloaded HeLa cells, 50–500 μM) | Inhibitory effect against Fe(III)-citrate-Vc-H2O2 induced •OH generation, in words [7] | Effect on O2 consumption induced by ascorbic acid/Fe(III)–citrate, in words [8] |
| --- | --- | --- | --- | --- | --- | --- | --- | --- | --- | --- | --- | --- | --- | --- | --- | --- | --- | --- | --- | --- |
| −0.99 V | 1.51 ± 0.03 | CCOC(=O)/C=C/c1ccc(O)c(O)c1 [CAEE, caffeic acid ethyl ester] | – | 50 to 500 µM | 50 to 500 µM | weaker than CAPE | – | – | – | – | – | – | – | – | – | – | – | – | – | – |
| −0.76 V | – | O=C(O)/C=C/c1ccc(O)c(O)c1 [CA, caffeic acid] | – | 500 µM | 500 µM | – | 3.13±0.42 Fold of Control | 3.09±0.51 Fold of Control | 2.82±0.43 Fold of Control | 1.73±0.43 Fold of Control | 0.63±0.02 Fold of Control | 0.64±0.01 Fold of Control | 0.70±0.02 Fold of Control | lower than CAPE; also recorded: slightly inhibited | 20 to 200 µM | weaker inhibition | 1.00±0.02 Fold of Control | – | – | – |
| – | 1.38 ± 0.02 | CCOC(=O)/C=C/c1ccc(O)c(OC)c1 [EF, ethyl ferulate] | no significant inhibition | – | – | – | – | – | – | – | 0.65±0.03 Fold of Control | 0.62±0.02 Fold of Control | 0.61±0.02 Fold of Control | no significant protective effect | – | no inhibitory effects | 0.99±0.01 Fold of Control | no effect | no inhibitory effect | no significant effects |
